Reference: patent US10648917B2, “Luminescent compositions and applications thereof” (THE PENN STATE RESEARCH FOUNDATION, priority 2015, dated 2020)

What was measured:
[1] = Photostability under continuous excitation for 3 hours; type: physicochemical; details: FIG. 19
Protocol: (§1) Fluorescence spectra were recorded by a Horiba FluoroMax-4 spectrofluorometer. All samples were measured at a concentration corresponding to an optical density of 0.1 in water and a slit size of 1 nm by 1 nm unless specified. Quantum yields were also determined on same spectrofluorometer by using a Quantum-φ integration sphere at samples' maximum excitation wavelength and at an increment of 0.3 nm. Photostability studies were done by continuously exciting samples at their maximum excitation wavelength and monitoring at the maximum emission wavelength.
(§2) Fluorescence spectra were recorded on a Horiba FluoroMax-4 spectrofluorometer (Horiba Scientific, Edison N.J.). All polymer and samples were characterized at a concentration of 2 wt % in 1,4-dioxane and a slit size of 1 nm by 1 nm unless otherwise specified. The fluorescence properties of small molecule dyes were also measure in 2 wt % DI water solutions at same conditions as polymer solutions. BPLPs were also degraded in 1M K2CO3 solution at 37° C. for 24 hours and then neutralized with 1N HCl solution to pH7. The resulting degradation solutions were subject to further PL characterizations. Quantum yields were also determined on the same spectrofluorometer by using a Quantum-φ integration sphere (Horiba Scientific, Edison N.J.) at the same concentration and slit size with the blank solvent as the reference. Photostability of small molecules and polymers were determined by monitoring the emission intensity decay at their max. Excitation and emission wavelengths over 3 hours of continuous lumination in the spectrofluorometer.
Photostability of CFDs was characterized thereafter, since traditional organic dyes suffer from photobleaching. Various CFDs were tested under their maximum excitation and emission wavelengths for 3 hours, and the photoluminescence was normalized to the initial intensity.

[2] = Halide fluorescence quenching (Stern-Volmer); type: physicochemical; details: compared with CA-Cysteine
Protocol: (§3) Absorbance Spectra were recorded on Tecan Infinite M200 Pro UV-vis spectroscopy, and fluorescence spectra were recorded on Horiba FluoroMax-4 fluorospectroscopy at concentrations below 0.1 O.D. unless otherwise indicated. Quantum Yields were measured on the Quantum φ Integrating Sphere accessory to the FluoroMax-4, while lifetime measurements were determined through the Time-Correlation Single Photon Counting (TCSPC) accessory to the FluroMax-4. TCSPC was utilized in conjunction with NanoLED pulsed diode light source with peak excitation wavelength at 352 nm and at 10,000 counts peak preset. Emission was collected at the fluorescence λmax, unless otherwise indicated. For all pH-dependence experiments, sample pH was adjusted with sulfuric acid or sodium hydroxide. For all chloride-dependent quenching experiments, magnesium chloride hexahydrate (Sigma Aldrich) was used.
When a fluorophore of [F] absorbs light energy, excitation raises a sub-population of [F] to the excited state, [F*], which then rapidly lose energy along radiative relaxation (kr) or non-radiative relaxation (knr) according to equation 7. If a quencher forms a complex with the excited fluorophore, an extra non-radiative component, kq, is added to equation 7 to account for the additional relaxation pathway that is a function of quencher concentration and its association constant.
[formula] Thus the quenching of fluorescence can be quantitatively analyzed by comparing the affected lifetimes. The Stern-Volmer (SV) relationship is used to determine kq, the bimolecular quenching rate constant for the diffusion coefficients of the fluorophore and quencher, by deriving a plot of τ0/τ versus [Q]:
[formula] Thus the linear slope of the SV plot, KSV, measures the efficiency of the quencher. Since sulfuric acid was used to study proton-induced quenching, the pH value was a better indicator of [H^+] due to incomplete dissociation of sulfuric acid at high concentrations. In the case of multiple quenchers, as will be discussed in this paper, equation 7 must include additional kq terms that result in modified form of equation 12 below:
[formula] If the two quenchers are act independently, the quencher of known quenching rate and concentration can be combined into the Y-intercept term in order to determine the quenching rate of the second, unknown quencher. […]
To translate halide quenching into quantitative sensing applications, a modified Stern-Volmer equation (Equation 14) was used to linearize the effects of two quenchers, protons and the halide being studied, on the fluorescence of CA-Cysteine. […]
Since the measured sample fluorescence is quenched by both protons and halides, the unquenched fluorescence, Io, was defined as the fluorescence of the neutral state CA-Cysteine in the absence of additional proton or halide quenchers. As mentioned above, the effects of protolytic equilibria stabilize around pH 2.2, where CA-Cysteine undergoes 99% conversion from the dianion state and is marked by constant fluorescence intensities (FIG. 13). […] Thus we chose the fluorescence intensity at pH 2.2 (in the absence of halides) as the unquenched reference signal, Io. IH,Cl in equation 23 is the sample fluorescence at the pH and halide concentration indicated. […]

[3] = Fluorescence spectra, absorbance and quantum yield (spectrofluorometer, integration sphere); type: physicochemical
Protocol: Fluorescence spectra were recorded by a Horiba FluoroMax-4 spectrofluorometer. All polymer and small molecule samples were measured at a concentration of 2% w/w in 1,4-dioxane or DI water and a slit size of 1 nm by 1 nm unless otherwise specified. Quantum yields were also determined on the same spectrofluorometer by using a Quantum-φ integration sphere at the same concentration and slit size with the blank solvent as the reference. ^1H-NMR, ^13C-NMR were performed on a JNM ECS 300 spectrometer using DMSO-d6 or D2O as solvents. Attenuated total reflection Fourier transform infrared (ATR-FTIR) spectra were collected with a Bruker V70 spectrometer using BPLP films. A Shimadzu HPLC-MS system with a Phenomenex Kinetex 2.6u XB-C18 100 mm×2.9 mm column, a SPD M20A PDA detector and a RF-20AXS fluorescence detector (Ex. 360 nm and Em. 430 nm) was used to characterize the structures of fluorophores as well. The mobile phase was a gradient of DI water and acetonitrile with 0-6 min 2% acetonitrile, 6-12 min 2%-30% acetonitrile, and 12-15 min 2% acetonitrile. The flow rate was 0.15 ml/min. Electrospray ionization mass spectroscopy (ESI-MS) was performed with a positive voltage of 4.5 kV and negative mode voltage −4.0 kV and a CDL temperature of 200° C. The analysis of the degradation products of BPLPs were conducted by immersing BPLPs in 1M K2CO3 solution at 37° C. for 24 hours. After degradation, the solutions were neutralized by 1N HCl solution to pH 7 and characterized by HPLC-MS as described above.
as §1, §2, §3

[4] = commercial halide sensors; cited from earlier work

O=C(O)c1cc2n(c(=O)c1)CCS2 [CA-Cysteamine]
photostability [1]: strong photostability
halide sensitivity [2]: increase sensitivity of all halides across all pH
Shifting (emission shifting with excitation wavelength) ([3]; CFD dyes): No
Φ (quantum yield) ([3]; Table III): 79.3%
λem (maximum emission wavelength) ([3]; Table III): 445 nm
λex (maximum excitation wavelength) ([3]; Table III): 365 nm
ϵ (extinction coefficiency) ([3]; Table III): 3880 M⁻¹ cm⁻¹
Max. Em. Wavelength ([3]; representative CFDs, Table I): 445 nm
Max. Ex. Wavelength ([3]; representative CFDs, Table I): 365 nm
Quantum Yield ([3]; representative CFDs, Table I): 79.3%

CC[n+]1cccc2cc(OC)ccc21.[I-] [MEQ]
pH dependence of halide quenching [4]: quenched by halides independent of pH

CCOC(=O)C[n+]1cccc2cc(OC)ccc21.[Br-] [MQAE]
pH dependence of halide quenching [4]: quenched by halides independent of pH

COc1ccc2c(ccc[n+]2CCCS(=O)(=O)[O-])c1 [SPQ]
pH dependence of halide quenching [4]: quenched by halides independent of pH
